Reference: publication PMC4865820, “Branched Peptide, B2088, Disrupts the Supramolecular Organization of Lipopolysaccharides and Sensitizes the Gram-negative Bacteria” (Scientific Reports, 2016)
Positions of bridges follow the written chain, without caps; N, C: chain ends. Residues, ends and D or L forms follow the SMILES beside them. Chains are numbered I, II in the order given.

Experiments:
[1] = tested on: P. aeruginosa ATCC 9027; test: Outer membrane permeability assay (NPN); format: cell-based; conditions: no unit in table; Fig. S5 axis [Peptide], μM; 10 μM NPN, 5 mM HEPES pH 7.4, ex 355/em 405 nm; average of two titrations; read-out: PC50 (peptide concentration for half-maximal NPN intensity, OM permeability)
Method: The ability of each peptide to permeabilize the OM of Gram-negative organisms was determined using the hydrophobic fluorescent probe 1-N-phenylnaphthylamine (NPN) as previously reported. P. aeruginosa ATCC 9027 cells from an overnight MHB culture were harvested after centrifuging at 3000 rpm for 10 minutes. The pellet was washed twice, suspended in 5 mM HEPES (N- 2-hydroxyethylpiperazine-N’-2 ethanesulfonic acid) buffer (pH 7.4) and adjusted to an OD600 of 0.200. A suspension containing 600 μl of bacteria cells and 1 μl of a concentrated stock solution of NPN was mixed into a 10 mm stirred quartz cuvette so that the final concentration of the probe remained 10 μM. Aliquots containing 1 μl of each peptide in various concentrations (100, 50, 25, 15, 10, 5, 2.5 and 1 μg/ml) were added upon NPN dye stabilization. The fluorescence intensity was monitored using a Quanta Master spectrophotometer with a constant slit width of 0.5 nm, excitation and emission wavelengths set at 355 nm and 405 nm respectively. The peptide concentration required for half-maximal intensity (PC50) was determined by sigmoidal curve fitting using Graphpad Prism software. The experimental data is average of two independent titration experiments.

[2] = tested on: P. aeruginosa ATCC 27853; format: cell-based; conditions: ATCC 27853; for Fractional inhibitory concentration of peptide/PMB, combination with Genta: first number in parenthesis; for Fractional inhibitory concentration of antibiotic, Genta combination: second number in parenthesis
Method: (§1) The synergism between peptides with conventional antibiotics was evaluated using checkerboard assays. For a comparison polymyxin B (PMB) was also tested against each antibiotic. From their stock solutions, two-fold dilutions of each antibiotic and peptide to 1× MIC were prepared in MHB. 50 μl of each peptide concentration was added into the wells of a 96-well polystyrene plates (SPL Life Sciences Co. Ltd, Korea) in a horizontal orientation and the same volume of each antibiotic concentration were then added in a vertical orientation. Bacterial suspensions were prepared in MHB to yield final cell density of ~10^6 CFU/ml and 100 μl of bacterial suspension was mixed with each peptide-antibiotic combinations. This procedure was repeated for wells containing 200 μl of peptide alone and 200 μl of antibiotic alone in various concentrations. The positive and negative controls contained 200 μl of inoculum and MHB alone respectively. The plates were incubated at 37 °C for 24 hours and the optical density at 600 nm (OD600) was monitored as before. Fractional inhibitory concentration index (FICI) for all antibiotic- peptide combinations was calculated through the summation of (MIC of peptide in the combination/ MIC of peptide alone) and (MIC of antibiotics in combination/MIC of antibiotic alone). The experiments were performed in two independent duplicates and the combinations that gave the lowest FICI values was reported.

[3] = tested on: P. aeruginosa DR4877/07; format: cell-based; conditions: for Fractional inhibitory concentration of peptide/PMB, combination with Chloarm / Fractional inhibitory concentration of peptide/PMB, combination with Erythro / Fractional inhibitory concentration of peptide/PMB, combination with Levo / Fractional inhibitory concentration of peptide/PMB, combination with Tobra: first number in parenthesis; for Fractional inhibitory concentration of antibiotic, Chloarm combination / Fractional inhibitory concentration of antibiotic, Erythro combination / Fractional inhibitory concentration of antibiotic, Levo combination / Fractional inhibitory concentration of antibiotic, Tobra combination: second number in parenthesis
Method: as §1

[4] = tested on: P. aeruginosa ATCC 27853; test: microbe, parasite or virus in culture; format: cell-based; conditions: ATCC 27853, 24 h
Method: (§2) MIC of each peptide was determined using the microdilution method in a 96 well microtitre plates (SPL Life Sciences Co., Ltd, Korea). Two-fold serial dilutions of each peptide in Mueller-Hinton Broth (MHB) was prepared from a 1 mg/ml stock solution of the peptide in the same broth, to obtain a final concentration in the range of 0.0976–50 μg/ml in each well. Bacterial suspensions (P. aeruginosa ATCC 27853, P. aeruginosa 4877, P. aeruginosa 23155, K. pneumoniae ATCC 10031 and K. pneumoniae 4299) were prepared by suspending the overnight cultured bacteria in saline and adjusting the inoculum to ~10^8 colony forming units (CFU) per ml. A further 150-fold dilution was then prepared in MHB to achieve a final cell density of 10^5–10^6 CFU/ml. In each well, 100 μl of inoculum was mixed with the equal volume of peptides at their 2× concentration. Positive and negative controls contained 200 μl of inoculum (without any peptide) and broth alone (no peptide/inoculum) respectively. Another negative control in which MHB containing 200 μl of peptide alone in its highest concentration tested (50 μg/ml) was also included to ensure that the optical density measured in the test wells was not due to turbidity of the peptides in solution. The 96 well polystyrene plates were then incubated at 37 °C for 24 h and the optical density at 600 nm (OD600) was measured every 30 min continuously using a TECAN microplate reader (TECAN Infinite 200, Austria). All the experiments were performed in two independent duplicates and the MIC was determined as the lowest peptide concentration in which no visible growth was observed.

[5] = tested on: K. pneumoniae ATCC10031; format: cell-based; conditions: ATCC10031, 24 h
Method: as §2

[6] = tested on: P. aeruginosa 23155; format: cell-based; conditions: 23155, 24 h
Method: as §2

[7] = tested on: LPS (E. coli serotype 055:B5); test: BODIPY TR cadaverine (BC) displacement assay with LPS; format: binding; conditions: no unit in table; ED50 values in μM; 5 mM HEPES pH 7.4; duplicates; read-out: BC50 (LPS binding)
Description: To investigate the interaction of B2088 with LPS, we performed the BODIPY TR cadaverine (BC) displacement assay reported by Wood et al.[22]. The probe binds to the lipid A part of the LPS with moderate affinity and can be displaced by putative LPS-binding molecules. The method was used to probe the affinity of polycationic molecules and LPS binding proteins. First, we determined the affinity of polymyxin B (PMB), a lipopeptide cyclic antibiotic which has a high affinity for LPS. […] Figure 1a,b show the concentration-dependent displacement of LPS/lipid A-bound BC upon addition of B2088. […] To confirm the importance of branching, we determined the BC50 for a linear retrodimer having the amino acid sequence, […] (Fig. 1d). The determined value was 2-fold higher (3.9 ± 0.1 μM) than that of B2088, confirming a weaker affinity of the linear peptide.
The BC displacement assay was used to determine the ability of each peptide to bind to LPS. The florescent probe, BODIPY TR cadaverine (BC) was purchased from Molecular Probes/ Invitrogen (USA). A stock solution containing 1 mg/ml of LPS (E. coli serotype 055:B5) was prepared in dimethyl sulfoxide (DMSO) and another stock solution containing 1 mg/ml of BC dye was prepared in 5 mM HEPES buffer (pH 7.4). The optimum saturation concentration of BC:LPS ratio was standardized following the protocol provided by Wood et al. (22). From the BC stock, 240 μl was mixed with 500 μl from the LPS stock solution in 5 mM HEPES buffer (pH 7.4) to prepare 20 ml of BC:LPS mixture. Two-fold serial dilutions of each peptide in 5 mM HEPES buffer (pH 7.4) was prepared from their 1 mg/ml stock solutions to obtain a final range of 0.02–25.6 μM. The BC:LPS mixture was added to 100 μl of each peptide congener in a 1:1 ratio in each well of a 96-well black Costar™ polystyrene microtitre plate (Corning Incorporated, NY, USA). The maximum fluorescence intensity (Fmax) was determined using a mixture containing 100 μl PMB (50 μg/ml) and 100 μl BC:LPS solution, as PMB is considered the ‘gold standard’ for LPS-sequestering agents. The minimum fluorescence intensity (F0) was measured using 200 μl of BC:LPS mixture to determine the background noise for this experiment. Fluorescence measurements for each peptide (F) were determined using a microplate reader (Model: TECAN Infinite 200, Austria) with excitation and emission wavelengths set at 580 nm and 620 nm respectively. The percentage of BC displacement was then calculated using the formula: […]
The experiments were performed in duplicates and the effective concentration required for 50% displacement of BC dye (ED50) from LPS with respect to PMB was determined by curve fitting using Graphpad Prism (CA, USA). A higher ED50 value for the peptide indicates a lower affinity for LPS.

[8] = tested on: K. pneumonia 4299; test: microbe, parasite or virus in culture; format: cell-based, K. pneumoniae; conditions: 24 h
Method: as §2

Compound | EC50 [1] | Fractional inhibitory concentration of peptide/PMB, combination with Genta [2] | Fractional inhibitory concentration of antibiotic, Genta combination [2] | Fractional inhibitory concentration of peptide/PMB, combination with Chloarm [3] | Fractional inhibitory concentration of peptide/PMB, combination with Erythro [3] | Fractional inhibitory concentration of peptide/PMB, combination with Levo [3] | Fractional inhibitory concentration of peptide/PMB, combination with Tobra [3] | Fractional inhibitory concentration of antibiotic, Chloarm combination [3] | Fractional inhibitory concentration of antibiotic, Erythro combination [3] | Fractional inhibitory concentration of antibiotic, Levo combination [3] | Fractional inhibitory concentration of antibiotic, Tobra combination [3] | Minimum Inhibitory Concentration against P. aeruginosa ATCC 27853 [4] | Minimum Inhibitory Concentration against K. pneumoniae ATCC10031 [5] | Minimum Inhibitory Concentration against P. aeruginosa 23155 [6] | EC50 [7] | Minimum Inhibitory Concentration against K. pneumonia 4299 [8]
CC(C)C[C@H](NC(=O)[C@H](CCCCN)NC(=O)[C@H](CCCNC(=N)N)NC(=O)CNC(=O)[C@@H](N)CCCNC(=N)N)C(=O)N[C@@H](CC(C)C)C(=O)N[C@@H](CCCNC(=N)N)C(=O)N[C@@H](CCCNC(=N)N)C(=O)NCCCC[C@H](NC(=O)[C@H](CCCNC(=N)N)NC(=O)[C@H](CCCNC(=N)N)NC(=O)[C@H](CC(C)C)NC(=O)[C@H](CC(C)C)NC(=O)[C@H](CCCCN)NC(=O)[C@H](CCCNC(=N)N)NC(=O)CNC(=O)[C@@H](N)CCCNC(=N)N)C(=O)N[C@@H](CCCCN)C(=O)O (I: H-RGRKLLRRKK-OH / II: H-RGRKLLRR; amide I:9-II:C; N-terminus and C-terminus assumed) | 17.5 ± 0.4 µM | (0.25,0.25) | (0.25,0.25) | 0.25 | (0.5,0.5) | 0.5 | (0.25,0.25) | 0.13 | (0.5,0.5) | 0.06 | (0.25,0.25) | 2.7 µM | 5.3 µM | 2.7 µM | 1.47 ± 0.02 µM | 5.3 µM
N=C(N)NCCC[C@H](NC(=O)CNC(=O)[C@@H](N)CCCNC(=N)N)C(=O)N[C@@H](CCCCN)C(=O)N[C@@H](Cc1c[nH]c2ccccc12)C(=O)N[C@@H](Cc1c[nH]c2ccccc12)C(=O)N[C@@H](CCCNC(=N)N)C(=O)N[C@@H](CCCNC(=N)N)C(=O)NCCCC[C@H](NC(=O)[C@H](CCCNC(=N)N)NC(=O)[C@H](CCCNC(=N)N)NC(=O)[C@H](Cc1c[nH]c2ccccc12)NC(=O)[C@H](Cc1c[nH]c2ccccc12)NC(=O)[C@H](CCCCN)NC(=O)[C@H](CCCNC(=N)N)NC(=O)CNC(=O)[C@@H](N)CCCNC(=N)N)C(=O)N[C@@H](CCCCN)C(=O)O (I: H-RGRKWWRRKK-OH / II: H-RGRKWWRR; amide I:9-II:C; N-terminus and C-terminus assumed) | 31.1 ± 4.6 µM | 0.5 | 0.06 | 0.5 | (0.5,0.5) | 0.5 | 0.5 | 0.13 | (0.5,0.5) | 0.25 | 0.25 | 9.5 µM | 9.5 µM | 9.5 µM | 6.8 ± 0.12 µM | 19 µM
N=C(N)NCCC[C@H](NC(=O)CNC(=O)[C@@H](N)CCCNC(=N)N)C(=O)N[C@@H](CCCCN)C(=O)N[C@@H](Cc1ccc(O)cc1)C(=O)N[C@@H](Cc1ccc(O)cc1)C(=O)N[C@@H](CCCNC(=N)N)C(=O)N[C@@H](CCCNC(=N)N)C(=O)NCCCC[C@H](NC(=O)[C@H](CCCNC(=N)N)NC(=O)[C@H](CCCNC(=N)N)NC(=O)[C@H](Cc1ccc(O)cc1)NC(=O)[C@H](Cc1ccc(O)cc1)NC(=O)[C@H](CCCCN)NC(=O)[C@H](CCCNC(=N)N)NC(=O)CNC(=O)[C@@H](N)CCCNC(=N)N)C(=O)N[C@@H](CCCCN)C(=O)O (I: H-RGRKYYRRKK-OH / II: H-RGRKYYRR; amide I:9-II:C; N-terminus and C-terminus assumed) | 21.9 ± 0.2 µM | (0.25,0.25) | (0.25,0.25) | 0.25 | 0.5 | 0.5 | 0.25 | 0.13 | 0.06 | 0.25 | 0.13 | 4.5 µM | 4.5 µM | 4.5 µM | 2.5 ± 0.04 µM | 9.0 µM
